“And” between values parts separate entries of the source, which are not always exact repeats. Equal values may be shown once.
Test system: 454973-116-R2-J3-PDC spheroids, percent test/control viability
Assay: Anticancer human tumor 454973-116-R2-J3-PDC patient-derived pancreatic carcinoma cell line growth inhibition [CLK]
Settings: spheroids with HUVEC and MSC; for viability, T/C: stronger effect = lower value
Outline: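 Multi-cell-type spheroids combined patient-derived tumor cells with HUVEC endothelial cells and human mesenchymal stem cells. Paired agents were dosed in half-log steps down from about clinical Cmax, or from 10 microM where Cmax was unknown.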

[1] = curve of first compound, second compound 0.0316 µM
[2] = curve of first compound, second compound 0.1 µM
[3] = curve of first compound, second compound 0.316 µM
[4] = curve of first compound, second compound 1 µM
[5] = curve of first compound, second compound 3.16 µM
[6] = curve of first compound, second compound 10 µM
[7] = second compound 0.0316 µM, first compound 0.00949 µM
[8] = second compound 0.0316 µM, first compound 0.03 µM
[9] = second compound 0.0316 µM, first compound 0.0949 µM
[10] = second compound 0.0316 µM, first compound 0.3 µM
[11] = second compound 0.0316 µM, first compound 0.949 µM
[12] = second compound 0.0316 µM, first compound 3 µM
[13] = second compound 0.1 µM, first compound 0.00949 µM
[14] = second compound 0.1 µM, first compound 0.03 µM
[15] = second compound 0.1 µM, first compound 0.0949 µM
[16] = second compound 0.1 µM, first compound 0.3 µM
[17] = second compound 0.1 µM, first compound 0.949 µM
[18] = second compound 0.1 µM, first compound 3 µM
[19] = second compound 0.316 µM, first compound 0.00949 µM
[20] = second compound 0.316 µM, first compound 0.03 µM
[21] = second compound 0.316 µM, first compound 0.0949 µM
[22] = second compound 0.316 µM, first compound 0.3 µM
[23] = second compound 0.316 µM, first compound 0.949 µM
[24] = second compound 0.316 µM, first compound 3 µM
[25] = second compound 1 µM, first compound 0.00949 µM
[26] = second compound 1 µM, first compound 0.03 µM
[27] = second compound 1 µM, first compound 0.0949 µM
[28] = second compound 1 µM, first compound 0.3 µM
[29] = second compound 1 µM, first compound 0.949 µM
[30] = second compound 1 µM, first compound 3 µM
[31] = second compound 3.16 µM, first compound 0.00949 µM
[32] = second compound 3.16 µM, first compound 0.03 µM
[33] = second compound 3.16 µM, first compound 0.0949 µM
[34] = second compound 3.16 µM, first compound 0.3 µM
[35] = second compound 3.16 µM, first compound 0.949 µM
[36] = second compound 3.16 µM, first compound 3 µM
[37] = second compound 10 µM, first compound 0.00949 µM
[38] = second compound 10 µM, first compound 0.03 µM
[39] = second compound 10 µM, first compound 0.0949 µM
[40] = second compound 10 µM, first compound 0.3 µM
[41] = second compound 10 µM, first compound 0.949 µM
[42] = second compound 10 µM, first compound 3 µM
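Note: spheroids exposed to compounds for 7 days before readout.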

Which results are given for `O=c1[nH]cc(F)c(=O)[nH]1` + CNC(=O)c1ccc(Nc2nc(OC3CCCC3)c3c(-c4ccc5nc(C)oc5c4)c[nH]c3n2)c(OC)c1?
IC50 [1]: 1650 nM; IC50 [2]: 2020 nM; IC50 [3]: 41.2 nM; IC50 [4]: < 31.6 nM; IC50 [5]: < 31.6 nM; IC50 [6]: < 31.6 nM; viability, T/C (second compound 0.0316 µM, first compound 0.0316 µM): 94.7%; viability, T/C (second compound 0.0316 µM, first compound 0.1 µM): 107%; viability, T/C (second compound 0.0316 µM, first compound 0.316 µM): 88.5%; viability, T/C (second compound 0.0316 µM, first compound 1 µM): 61.7%; viability, T/C (second compound 0.0316 µM, first compound 3.16 µM): 32.6%; viability, T/C (second compound 0.0316 µM, first compound 10 µM): 38.4%; viability, T/C (second compound 0.1 µM, first compound 0.0316 µM): 100%; viability, T/C (second compound 0.1 µM, first compound 0.1 µM): 113%; viability, T/C (second compound 0.1 µM, first compound 0.316 µM): 106%; viability, T/C (second compound 0.1 µM, first compound 1 µM): 75.8%; viability, T/C (second compound 0.1 µM, first compound 3.16 µM): 33.6%; viability, T/C (second compound 0.1 µM, first compound 10 µM): 32.1%; viability, T/C (second compound 0.316 µM, first compound 0.0316 µM): 49.4%; viability, T/C (second compound 0.316 µM, first compound 0.1 µM): 49.3%; viability, T/C (second compound 0.316 µM, first compound 0.316 µM): 42.5%; viability, T/C (second compound 0.316 µM, first compound 1 µM): 37.5%; viability, T/C (second compound 0.316 µM, first compound 3.16 µM): 28.4%; viability, T/C (second compound 0.316 µM, first compound 10 µM): 25.3%; viability, T/C (second compound 1 µM, first compound 0.0316 µM): 32.9%; viability, T/C (second compound 1 µM, first compound 0.1 µM): 28.1%; viability, T/C (second compound 1 µM, first compound 0.316 µM): 21.6%; viability, T/C (second compound 1 µM, first compound 1 µM): 20.6%; viability, T/C (second compound 1 µM, first compound 3.16 µM): 16.2%; viability, T/C (second compound 1 µM, first compound 10 µM): 19.6%; viability, T/C (second compound 3.16 µM, first compound 0.0316 µM): 29.8%; viability, T/C (second compound 3.16 µM, first compound 0.1 µM): 33%; viability, T/C (second compound 3.16 µM, first compound 0.316 µM): 24.5%; viability, T/C (second compound 3.16 µM, first compound 1 µM): 19.1%; viability, T/C (second compound 3.16 µM, first compound 3.16 µM): 16.4%; viability, T/C (second compound 3.16 µM, first compound 10 µM): 18.9%; viability, T/C (second compound 10 µM, first compound 0.0316 µM): 25.1%; viability, T/C (second compound 10 µM, first compound 0.1 µM): 25.3%; viability, T/C (second compound 10 µM, first compound 0.316 µM): 19.7%; viability, T/C (second compound 10 µM, first compound 1 µM): 19.3%; viability, T/C (second compound 10 µM, first compound 3.16 µM): 17.2%; viability, T/C (second compound 10 µM, first compound 10 µM): 14.2%

With `CC1COCCN1c1cc(C2(S(C)(=N)=O)CC2)nc(-c2ccnc3[nH]ccc23)n1` (stereo not drawn) as the compound, how does the viability, T/C (compound 0.0316 µM) read?
The viability, T/C was 109% and 101%.

What about the viability, T/C (compound 0.1 µM) of the same compound?
The viability, T/C was 109% and 97.7%.

What about the viability, T/C (compound 0.316 µM) of the same compound?
The viability, T/C was 104% and 102%.

And the viability, T/C (compound 1 µM)?
Its viability, T/C is 101% and 98%.

And the viability, T/C (compound 3.16 µM)?
Its viability, T/C is 91.1% and 87.8%.

What about the viability, T/C (compound 10 µM) of the same compound?
The viability, T/C was 38.4% and 36.1%.

And the IC50 (curve of compound)?
The IC50 was 7770 nM and 7340 nM.

What does the source list for `NC(=O)C(=Cn1cnc(-c2cc(C(F)(F)F)cc(C(F)(F)F)c2)n1)c1cncnc1` + CN1CCN(c2cc(C(=O)Nc3cc4cc(-c5cnn(C)c5)ccc4cn3)ccn2)CC1?
IC50 [1]: 530 nM; IC50 [2]: 167 nM; IC50 [3]: < 9.49 nM; IC50 [4]: < 9.49 nM; IC50 [5]: < 9.49 nM; IC50 [6]: < 9.49 nM; viability, T/C [7]: 93.1%; viability, T/C [8]: 96.2%; viability, T/C [9]: 70.5%; viability, T/C [10]: 65.9%; viability, T/C [11]: 36.9%; viability, T/C [12]: 9.03%; viability, T/C [13]: 81.8%; viability, T/C [14]: 65.2%; viability, T/C [15]: 62.8%; viability, T/C [16]: 41%; viability, T/C [17]: 20.2%; viability, T/C [18]: 2%; viability, T/C [19]: 0.71%; viability, T/C [20]: 0.67%; viability, T/C [21]: 0.65%; viability, T/C [22]: 0.1%; viability, T/C [23]: 0.08%; viability, T/C [24]: 0.11%; viability, T/C [25]: 0.11%; viability, T/C [26]: 0.15%; viability, T/C [27]: 1.14%; viability, T/C [28]: 0.08%; viability, T/C [29]: 0.08%; viability, T/C [30]: 0.06%; viability, T/C [31]: 0.08%; viability, T/C [32]: 0.28%; viability, T/C [33]: 0.13%; viability, T/C [34]: 0.13%; viability, T/C [35]: 0.1%; viability, T/C [36]: 0.72%; viability, T/C [37]: 1.5%; viability, T/C [38]: 0.12%; viability, T/C [39]: 0.2%; viability, T/C [40]: 0.2%; viability, T/C [41]: 0.22%; viability, T/C [42]: 0.23%

Which results are given for `NC(=O)C(=Cn1cnc(-c2cc(C(F)(F)F)cc(C(F)(F)F)c2)n1)c1cncnc1` + CNC(=O)c1ccc(Nc2nc(OC3CCCC3)c3c(-c4ccc5nc(C)oc5c4)c[nH]c3n2)c(OC)c1?
IC50 [1]: 330 nM; IC50 [2]: 411 nM; IC50 [3]: 61.9 nM; IC50 [4]: < 9.49 nM; IC50 [5]: < 9.49 nM; IC50 [6]: < 9.49 nM; viability, T/C [7]: 115%; viability, T/C [8]: 92.4%; viability, T/C [9]: 66.3%; viability, T/C [10]: 55%; viability, T/C [11]: 35.7%; viability, T/C [12]: 8.15%; viability, T/C [13]: 105%; viability, T/C [14]: 96.4%; viability, T/C [15]: 71%; viability, T/C [16]: 55.3%; viability, T/C [17]: 37.2%; viability, T/C [18]: 11.1%; viability, T/C [19]: 54.1%; viability, T/C [20]: 55.3%; viability, T/C [21]: 47.9%; viability, T/C [22]: 38.1%; viability, T/C [23]: 28.3%; viability, T/C [24]: 4.69%; viability, T/C [25]: 35.7%; viability, T/C [26]: 31.3%; viability, T/C [27]: 28.1%; viability, T/C [28]: 18.8%; viability, T/C [29]: 12.8%; viability, T/C [30]: 1%; viability, T/C [31]: 31.4%; viability, T/C [32]: 30.6%; viability, T/C [33]: 26.1%; viability, T/C [34]: 19.3%; viability, T/C [35]: 5.51%; viability, T/C [36]: 0.93%; viability, T/C [37]: 32.6%; viability, T/C [38]: 25.8%; viability, T/C [39]: 22.5%; viability, T/C [40]: 19.9%; viability, T/C [41]: 4.71%; viability, T/C [42]: 0.78%

Reference: PubChem BioAssay AID2060618 (Molecular Pharmacology Branch, DTP, NCI, 2025)
